For 49 molecules, Ki and remaining activity results are on record in patent publication US8835440B2, “Cyclic pyrimidin-4-carboxamides as CCR2 receptor antagonists for treatment of inflammation, asthma and COPD” (Boehringer Ingelheim International GmbH, priority 2008, dated 2014).

As a reminder, the Ki is the dissociation constant of the complex between target and ligand, obtained from inhibition or displacement. A low value points to a stronger hold on the target.

The target of the test is T1, CCR2 (Homo sapiens, UniProt P41597).
T1 construct: Membranes were prepared from THP-1 cells; endogenous in cells; host or cells: THP-1 cells (membrane preparation)
T1 sequence (P41597 1-360 isoform P41597-2): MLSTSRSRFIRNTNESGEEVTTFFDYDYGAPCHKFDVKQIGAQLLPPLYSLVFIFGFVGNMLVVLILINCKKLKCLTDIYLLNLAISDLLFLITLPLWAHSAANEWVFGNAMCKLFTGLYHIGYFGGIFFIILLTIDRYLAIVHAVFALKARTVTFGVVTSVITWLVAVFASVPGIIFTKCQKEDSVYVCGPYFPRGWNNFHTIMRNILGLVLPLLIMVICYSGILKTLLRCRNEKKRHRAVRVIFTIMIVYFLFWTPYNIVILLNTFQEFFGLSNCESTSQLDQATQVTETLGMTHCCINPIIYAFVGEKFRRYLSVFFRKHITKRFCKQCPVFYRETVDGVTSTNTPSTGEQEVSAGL
Kind of test: CCR2 receptor membrane binding assay ([125I]MCP-1, THP-1 cell membranes, SPA beads). The note with it: for Ki: dissociation constant hKi, [125I]MCP-1 binding to THP-1 membranes; for remaining activity at 10 µM: @ 10 μM test compound, THP-1 membranes, read-out: CCR2 % ctrl @ 10 μM. In a few lines:
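Human THP-1 monocytic cell membranes, pre-coupled to WGA-PVT SPA beads, were incubated with compound and [125I]MCP-1 (ca. 25000 cpm) in 25 mM HEPES pH 7.2, 5 mM MgCl2, 0.5 mM CaCl2, 0.2% BSA, at 1% DMSO final. Bound radioactivity was counted after 8 h, and Ki was obtained by iterative mass-action fitting.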

Molecule `Cc1ccc(C2CCC(CNc3nc(C)nc(C(=O)N4CCC(N5CCC(N(C)S(C)(=O)=O)CC5)CC4)c3C)O2)cc1` (stereo not shown) [Example 159oa] returned a Ki of 29 nM.

With `CNC(=O)C1CCN(C2CCN(C(=O)c3ncnc(NCC4CCN(c5ccccc5)C4)c3C)CC2)CC1` (stereo not shown) [Example 93], the remaining activity at 10 µM was 6% and the affinity corresponds to a Ki of 123 nM.

Take `Cc1ccc(CCNc2ncnc(C(=O)N3CCC(N4CCC(O)CC4)CC3)c2C)cc1C` [Example 126]: the remaining activity at 10 µM was determined as 23% and the inhibition constant Ki worked out at 399 nM.

Molecule `CO[C@@H]1COCC[C@@H]1NC1CCN(C(=O)c2nc(C)nc(NC[C@H]3C[C@H](c4ccccc4)C3)c2C)CC1` [Example 275de] yielded an inhibition constant Ki of 16 nM. That is a double-digit nanomolar value.

Consider `Cc1c(NCc2ccc(C(C)(C)C)cc2)ncnc1C(=O)N1CCC(N2CCC(O)CC2)CC1` [Example 7], for which the remaining activity at 10 µM was determined as 16% and the affinity corresponds to a Ki of 306 nM.

As for `Cc1c(NCc2ccc(C(C)(C)C)cc2)ncnc1C(=O)N1CCC(N(C)C2CCC(F)(F)CC2)CC1` [Example 275d], the remaining activity at 10 µM amounted to 10% and the affinity corresponds to a Ki of 318 nM.

Regarding `Cc1c(NCc2ccc(C(C)(C)C)cc2)ncnc1C(=O)N1CCC(NC2CCOCC2F)CC1` (stereo not shown) [Example 228d], the remaining activity at 10 µM stood at 1% and the affinity, expressed as Ki, was 91 nM.

Consider `Cc1c(NCCc2ccc(Cl)c(Cl)c2)ncnc1C(=O)N1CCC(N2CCC[C@H](C(N)=O)C2)CC1` [Example 175], for which the remaining activity at 10 µM was found to be 14% and the Ki amounted to 434 nM.

On to `Cc1c(NCc2ccc(C(C)(C)C)cc2)ncnc1C(=O)N1CCC(NC2CCOc3cccnc32)CC1` (stereo not shown) [Example 228gi], for which the Ki came to 1100 nM.

Consider `Cc1c(NCCc2ccc(F)c(F)c2)ncnc1C(=O)N1CCC(N2CCC(O)CC2)CC1` [Example 115], for which the remaining activity at 10 µM stood at 33% and affinity was put at a Ki of 847 nM.

For the molecule `Cc1c(CCc2ccc(C(C)(C)C)cc2)ncnc1C(=O)N1CCC(N2CCC(N(C)S(C)(=O)=O)CC2)CC1` [Example 272], the remaining activity at 10 µM was 8% and the inhibitory constant (Ki) came to 155 nM.

`Cc1c(NCc2ccc(C(C)(C)C)cc2)ncnc1C(=O)N1CCC(N2CCCC2)C1` (stereo not shown) [Example 251]: the remaining activity at 10 µM was found to be 75% and the Ki turned out to be 439 nM.

`Cc1c(NCCc2ccc(Cl)c(Cl)c2)ncnc1C(=O)N1CCC(N2CCCC(O)CC2)CC1` (stereo not shown) [Example 247]: the remaining activity at 10 µM is 6% and the Ki was found to be 149 nM.

For `Cc1nc(NCC2CCC(c3cccc(C(F)(F)F)c3)O2)c(C)c(C(=O)N2CCC(N3CCC(N(C)S(C)(=O)=O)CC3)CC2)n1` (stereo not shown) [Example 159qa], the inhibition constant (Ki) worked out at 19 nM. This lies in the double-digit nanomolar range.

Regarding `Cc1c(NCc2ccc(C(C)(C)C)cc2)ncnc1C(=O)N1CCC(N2CCOC(C)C2)CC1` (stereo not shown) [Example 209], the remaining activity at 10 µM is 7% and the Ki turned out to be 177 nM.

Take `Cc1c(NCC2Cc3ccccc32)ncnc1C(=O)N1CCC(N2CCC(O)CC2)CC1` (stereo not shown) [Example 26]: the remaining activity at 10 µM is 30% and the Ki was 914 nM.

Molecule `Cc1c(NCC2CCC(c3ccc(C(F)(F)F)cc3)O2)ncnc1C(=O)N1CCC(N2CCC(N(C)S(C)(=O)=O)CC2)CC1` (stereo not shown) [Example 159hb] gave an inhibition constant Ki of 20 nM.

As to `Cc1c(NCC2CCC(C)CC2)ncnc1C(=O)N1CCC(N2CCC(N(C)S(C)(=O)=O)CC2)CC1` (stereo not shown) [Example 159l], the Ki worked out at 22 nM.

`CNC(=O)C1CCN(C2CCN(C(=O)c3nc(C)nc(NCc4ccc(C(C)(C)C)cc4)c3C)CC2)CC1` [Example 248]: the remaining activity at 10 µM came out at 17%.

Regarding `Cc1c(NC[C@@H]2CCC[C@H](c3ccccc3)C2)ncnc1C(=O)N1CCC(N2CCC(O)CC2)CC1` [Example 145], the remaining activity at 10 µM is 17% and the affinity corresponds to a Ki of 181 nM.

Consider `COC1COCCC1NC1CCN(C(=O)c2ncnc(NC3Cc4ccccc4C3)c2C)CC1` (stereo not shown) [Example 159ec], for which the Ki was determined as 961 nM. This lies in the sub-micromolar range.

For the molecule `Cc1c(NCc2ccc(Cl)c(F)c2)ncnc1C(=O)N1CCC(N2CCC(O)CC2)CC1` [Example 117], the remaining activity at 10 µM was found to be 19% and the affinity, expressed as Ki, was 285 nM.

The molecule `Cc1c(NCC2CCOCC2)ncnc1C(=O)N1CCC(N2CCC(N(C)S(C)(=O)=O)CC2)CC1` [Example 159ac] yielded a Ki of 5940 nM.

For `CO[C@@H]1CN(C2CCN(C(=O)c3ncnc(NCc4ccc(Cl)c(Cl)c4)c3C)CC2)CC[C@H]1NS(C)(=O)=O` [Example 191], the remaining activity at 10 µM stood at 20% and the inhibition constant Ki amounted to 519 nM.

Consider `CNC(=O)[C@@H]1CCN(C2CCN(C(=O)c3ncnc(NCc4ccc(Cl)c(Cl)c4)c3C)CC2)C1` [Example 260], for which the remaining activity at 10 µM stood at 20% and the Ki was found to be 493 nM.

As for `CCC1CCC(CNc2ncnc(C(=O)N3CCC(N4CCC(N(C)S(C)(=O)=O)CC4)CC3)c2C)CC1` (stereo not shown) [Example 159k], the affinity, expressed as Ki, was 22 nM. This lies in the double-digit nanomolar range.

`COC1COCCC1NC1CCN(C(=O)c2ncnc(NCC3CCCCC3)c2C)CC1` (stereo not shown) [Example 159dc] came in with a Ki of 38 nM.

`COC1CC(F)(F)CCC1NC1CCN(C(=O)c2ncnc(NCc3ccc(C(C)(C)C)cc3)c2C)CC1` (stereo not shown) [Example 228g]: the remaining activity at 10 µM is 6% and the inhibition constant Ki is 169 nM.

As for `Cc1c(NCCc2ccc(Cl)c(Cl)c2)ncnc1C(=O)N1CCC(N2CCN(S(C)(=O)=O)CC2)CC1` [Example 285], the remaining activity at 10 µM stood at 35% and the inhibitory constant (Ki) is 1310 nM.

Turning to `Cc1c(NCC2CCC(c3ccc(Cl)cc3)O2)ncnc1C(=O)N1CCC(N2CCC(N(C)S(C)(=O)=O)CC2)CC1` (stereo not shown) [Example 159ab], the inhibition constant Ki came out at 27 nM.

As to `Cc1c(NCC2CCCC(C)C2)ncnc1C(=O)N1CCC(N2CCC(N(C)S(C)(=O)=O)CC2)CC1` (stereo not shown) [Example 159g], the affinity corresponds to a Ki of 15 nM.

Consider `CCS(=O)(=O)N(C)C1CCN(C2CCN(C(=O)c3ncnc(NCc4ccc(C(C)C)cc4)c3C)CC2)CC1` [Example 34], for which the remaining activity at 10 µM is 4% and the Ki was 62 nM.

On to `Cc1c(NCc2ccc(C(C)(C)C)cc2)ncnc1C(=O)N1CCC(N2CC[C@@H](C(N)=O)C2)CC1` [Example 265], for which the remaining activity at 10 µM was 23% and the affinity, expressed as Ki, was 462 nM.

As to `Cc1c(NCc2ccc(C(C)(C)C)cc2)ncnc1C(=O)N1CCCN(C2CCOCC2)CC1` [Example 288], the remaining activity at 10 µM was determined as 13% and the Ki is 738 nM.

For the molecule `Cc1cccc(C2CCC(CNc3ncnc(C(=O)N4CCC(N5CCC(N(C)S(C)(=O)=O)CC5)CC4)c3C)O2)c1` (stereo not shown) [Example 159ra], the inhibition constant Ki was determined as 22 nM.

With `Cc1nc(NCc2ccc(C(C)(C)C)cc2)c(C)c(C(=O)N2CCC(N3CCC(N(C)S(C)(=O)=O)CC3)CC2)n1` [Example 83], the remaining activity at 10 µM was found to be 3% and the affinity corresponds to a Ki of 43 nM.

With `Cc1c(NC[C@@H]2CCN(c3ccccc3)C2)ncnc1C(=O)N1CCC(N2CCC(N(C)S(C)(=O)=O)CC2)CC1` [Example 149], the remaining activity at 10 µM is 10% and the inhibition constant Ki turned out to be 41 nM.

On to `Cc1c(NCc2cnc3ccccc3c2)ncnc1C(=O)N1CCC(N2CCC(N(C)S(C)(=O)=O)CC2)CC1` [Example 157], for which the remaining activity at 10 µM came to 23% and the inhibition constant Ki was 1150 nM.

As to `CO[C@@H]1CCN(C2CCN(C(=O)c3ncnc(NCc4ccc(C(C)(C)C)cc4)c3C)CC2)C1` [Example 219], the remaining activity at 10 µM stood at 22% and the Ki was determined as 476 nM.

On to `Cc1c(NCCc2ccc(Cl)c(Cl)c2)ncnc1C(=O)N1CCC(N2CC[C@H](O)C2)CC1` [Example 166], for which the remaining activity at 10 µM worked out at 16% and the Ki turned out to be 227 nM.

`Cc1c(NCC2CCCCCC2)ncnc1C(=O)N1CCC(N2CCC(N(C)S(C)(=O)=O)CC2)CC1` [Example 159fa] displayed a Ki of 35 nM.

With `CCS(=O)(=O)N(C)C1CCN(C2CCN(C(=O)c3ncnc(NCCc4ccc(Cl)c(Cl)c4)c3C)CC2)CC1` [Example 36], the remaining activity at 10 µM stood at 1% and the Ki is 10 nM.

`Cc1c(OCC2CCN(c3ccccc3)C2)ncnc1C(=O)N1CCC(N2CCC(N(C)S(C)(=O)=O)CC2)CC1` (stereo not shown) [Example 295]: the remaining activity at 10 µM was 0% and affinity was put at a Ki of 140 nM.

Turning to `CCOC(=O)N1CCC(NC2CCN(C(=O)c3ncnc(NCc4ccc(C(C)(C)C)cc4)c3C)CC2)C(OC)C1` (stereo not shown) [Example 228e], the remaining activity at 10 µM is 40% and affinity was put at a Ki of 3720 nM.

As to `Cc1nc(NCC2CCN(c3ccccc3)C2)c(C)c(C(=O)N2CCC(N3CCC(N(C)S(C)(=O)=O)CC3)CC2)n1` (stereo not shown) [Example 84], the remaining activity at 10 µM amounted to 4% and the affinity, expressed as Ki, was 69 nM.

As for `Cc1c(NCC2CCN(c3ccccc3)CC2)ncnc1C(=O)N1CCC(N2CCC(O)CC2)CC1` [Example 113], the remaining activity at 10 µM stood at 46% and the Ki came to 3310 nM.

Take `Cc1cc(CNc2ncnc(C(=O)N3CCC(N4CCCCC4)CC3)c2C)ccc1F` [Example 135]: the remaining activity at 10 µM came out at 19% and the Ki is 888 nM.

The molecule `Cc1c(NCC2CCC(C(C)(C)C)CC2)ncnc1C(=O)N1CCC(N2CCC(N(C)S(C)(=O)=O)CC2)CC1` (stereo not shown) [Example 159o] yielded a Ki of 12 nM.

As for `CNC(=O)C1CN(C2CCN(C(=O)c3ncnc(NCc4ccc(Cl)c(Cl)c4)c3C)CC2)C1` [Example 193], the remaining activity at 10 µM was determined as 35% and the affinity corresponds to a Ki of 1540 nM.
